Data set [1] relates to Mtb H37Ra. Conditions: cited from earlier work.
Data set [2] has as its system C. parapsilosis. The experiment in a line: In vitro antifungal activity, microdilution broth (EUCAST). Type of data set: cell-based, Candida parapsilosis. Conditions: Lodderomyces parapsilosis.
Data set [3] deals with C. tropicalis. The description is as above. Type of data set: cell-based. Conditions: Candida tropicalis.
Data set [4] deals with L. corymbifera. Described as above. The class given is cell-based. The note with it: Lichtheimia corymbifera.
Data set [5] concerns C. albicans. Described as above. The class given is cell-based. The note with it: Candida albicans.
The test system of data set [6] is A. flavus. The data set is described as above. The class given is cell-based. The note with it: Aspergillus flavus.
Data set [7] deals with C. krusei. The description is as above. Type of data set: cell-based, Candida krusei. Conditions: Pichia kudriavzevii.
For data set [8], the system named is T. interdigitale. The description is as above. The note with it: Trichophyton interdigitale. The class given is cell-based.
Data set [9] relates to A. fumigatus. The description is as above. Type of data set: cell-based. The note with it: Aspergillus fumigatus.
Data set [10] relates to S. aureus. The experiment in a line: In vitro antibacterial activity, microdilution broth (EUCAST). Type of data set: cell-based. The note with it: Staphylococcus aureus. (In broth dilution the organism is exposed to a series of concentrations in liquid medium.)
Data set [11] deals with P. aeruginosa. The description is as above. The class given is cell-based. The note with it: Pseudomonas aeruginosa.
Data set [12] concerns E. coli. The description is as above. Type of data set: cell-based. Conditions: Escherichia coli.
The subject of data set [13] is MRSA. Described as above. The class given is cell-based, Staphylococcus aureus methicillin resistant. Conditions: Staphylococcus aureus.
Data set [14] deals with K. pneumoniae. Described as above. The note with it: Klebsiella pneumoniae. Type of data set: cell-based.
The subject of data set [15] is S. marcescens. The data set is described as above. The class given is cell-based. The note with it: Serratia marcescens.
The subject of data set [16] is E. faecalis. The data set is described as above. Conditions: Enterococcus faecalis. The class given is cell-based.
The subject of data set [17] is S. epidermidis. The data set is described as above. The class given is cell-based. Conditions: Staphylococcus epidermidis.
Data set [18] concerns M. aurum. In words: In vitro antimycobacterial activity, MABA. Type of data set: cell-based, Mycobacterium aurum. The note with it: Mycolicibacterium aurum; MABA; read-out: MIC M. aurum.
The test system of data set [19] is Mtb H37Ra. The experiment in a line: In vitro antimycobacterial activity, Microplate Alamar Blue Assay (MABA). Type of data set: cell-based, Mycobacterium tuberculosis. The note with it: for MIC: Mycobacterium tuberculosis, H37RA, read-out: MIC Mtb H37Ra. A general note: Resazurin is reduced to fluorescent resorufin, in cell work by metabolically active cells.
For data set [20], the system named is HepG2 cell line. The experiment in a line: In vitro cytotoxicity, CellTiter 96 (MTS). The class given is cell-based. The note with it: Homo sapiens, read-out: HepG2 IC50.
Data set [21] concerns M. smegmatis. In words: In vitro antimycobacterial activity, MABA. Type of data set: cell-based, Mycobacterium smegmatis. Conditions: Mycolicibacterium smegmatis; MABA; read-out: MIC M. smeg.
In data set [22] the test system is human glioblastoma U-87 MG cell line. The experiment in a line: In vitro cytotoxicity. Type of data set: cell-based. Conditions: 24 h, read-out: Cytotoxicity IC50 U-87 MG.
Data set [23] relates to human epithelial kidney cancer A498 cell line. In words: In vitro cytotoxicity. Type of data set: cell-based. The note with it: A498, 24 h, read-out: Cytotoxicity IC50 A498.
In data set [24] the test system is human ovarian cancer SK-OV-3 cell line. The experiment in a line: In vitro cytotoxicity. The class given is cell-based. Conditions: SK-OV-3, 24 h, read-out: Cytotoxicity IC50 SK-OV-3.
Data set [25] in a line: In vitro cytotoxicity, non-cancerous cells. Type of data set: cell-based. Conditions: human, HK-2 kidney cortex proximal tubule cells (non-cancerous); 24 hours incubation.
The subject of data set [26] is human prostate cancer PC-3 cell line. The experiment in a line: In vitro cytotoxicity. Type of data set: cell-based. The note with it: PC-3, 24 h, read-out: Cytotoxicity IC50 PC-3.
Where [27] appears, read: 48 h, standards, read-out: MIC Lichtheimia corymbifera.
Setting [28] is: 48 h, standards, read-out: MIC Candida albicans.
Setting [29] is: 48 h, standards, read-out: MIC Aspergillus flavus.
Setting [30] is: 72 h, standards, read-out: MIC Trichophyton interdigitale.
Where [31] appears, read: 48 h, standards, read-out: MIC Aspergillus fumigatus.
[32] abbreviates: 48 h, standards, read-out: MIC Staphylococcus aureus.
Where [33] appears, read: 48 h, standards, read-out: MIC Pseudomonas aeruginosa.
[34] abbreviates: 48 h, standards, read-out: MIC Escherichia coli.
[35] abbreviates: 48 h, standards, read-out: MIC Klebsiella pneumonia.
Setting [36] is: 48 h, standards, read-out: MIC Serratia marcescens.
The mark [37] stands for this setting: 48 h, standards, read-out: MIC Enterococcus faecalis.
[38] abbreviates: 48 h, standards, read-out: MIC Staphylococcus epidermidis.
Where [39] appears, read: HepG2, cytotoxicity, 24 h incubation, CellTiter 96.

The values below come from article PMC8399443, “Synthesis, Biological Evaluation, and In Silico Modeling of N-Substituted Quinoxaline-2-Carboxamides” (Pharmaceuticals, 2021).

What is called MIC is the lowest concentration that inhibits growth of the organism. One may read the IC50 as the concentration that inhibits the measured activity by half.

≈ marks a conversion by molar mass, not a printed value. Where “and” joins values, the source holds several entries; their conditions need not be identical. Equal values may be shown once. Read-outs that look alike come from different tables or passages of the source.

On to `CC(=O)Oc1ccc(COC(=O)c2cnc3ccccc3n2)cc1` [4-acetoxybenzyl quinoxaline-2-carboxylate], for which, in data set [1] (Figure 2b), the “MIC for Mtb H37Ra” value is 0.5 µg/mL.
Take `C[C@@H]1[C@H](O)[C@@H](C)/C=C/C=C/C=C/C=C/C=C/C=C/C=C/[C@H](O[C@@H]2O[C@H](C)[C@@H](O)[C@H](N)[C@@H]2O)C[C@@H]2O[C@](O)(C[C@@H](O)C[C@@H](O)[C@H](O)CC[C@@H](O)C[C@@H](O)CC(=O)O[C@H]1C)C[C@H](O)[C@H]2C(=O)O` [amphotericin B]: the minimal inhibitory concentration (MIC) in [2] (48 h, standards) stood at 0.5 µg/mL; in [3] (48 h, standards), 1 µg/mL; in data set [4] (setting [27]) it was 0.5 µg/mL; in data set [5] (setting [28]) it was 0.5 µg/mL; in data set [6] (setting [29]), 8 µg/mL; in [7] (48 h, standards) it was 1 µg/mL. Besides, the MIC in data set [8] (setting [30]) is 2 µg/mL; in data set [9] (setting [31]), 1 µg/mL.
Take `CNC(C)C1CCC(N)C(OC2C(N)CC(N)C(OC3OCC(C)(O)C(NC)C3O)C2O)O1` (stereo not drawn) [gentamicin]: the minimal inhibitory concentration (MIC) was 1 µg/mL in [10] (setting [32]); 0.5 µg/mL in [11] (setting [33]); 1 to 2 µg/mL in data set [12] (setting [34]); 16 to 32 µg/mL in data set [13] (48 h, read-out: MIC Staphylococcus aureus methicillin resistant); over 8 µg/mL in data set [14] (setting [35]); 2 µg/mL in data set [15] (setting [36]). Also, the results for the MIC in data set [16] (setting [37]) and in data set [17] (setting [38]) were 8 µg/mL and over 8 µg/mL, respectively.
With `C[C@@H](c1ncncc1F)[C@](O)(Cn1cncn1)c1ccc(F)cc1F` [voriconazole], the MIC in [2] (48 h, standards) was 8 µg/mL; in [3] (48 h, standards) it was over 16 µg/mL; in [4] (setting [27]) it was over 16 µg/mL; in data set [5] (setting [28]), over 16 µg/mL; in data set [6] (setting [29]), over 16 µg/mL; in [7] (48 h, standards), 0.5 µg/mL. Also, the MIC is over 16 µg/mL in data set [8] (setting [30]) and 1 µg/mL in [9] (setting [31]).
With `O=C(O)c1cn(C2CC2)c2cc(N3CCNCC3)c(F)cc2c1=O` [CPX, ciprofloxacin], the MIC in [10] (setting [32]) was 0.128 to 0.256 µg/mL; in [18], 0.0156 µg/mL (≈ 0.0471 µM); in data set [11] (setting [33]) it was 0.128 µg/mL; in data set [12] (setting [34]), 0.008 µg/mL; in data set [19] it was 0.25 µg/mL and 0.75 µM; in data set [14] (setting [35]) it was over 1.02 µg/mL. For the same compound, the MIC in data set [15] (setting [36]) is 0.256 µg/mL; in [16] (setting [37]), 0.512 µg/mL; in data set [17] (setting [38]) it was over 1.02 µg/mL; in [21], 0.125 µg/mL (≈ 0.377 µM). Besides, the IC50 in data set [20] (setting [39]) is over 500 µM.
In the case of `O=C(NCc1cccc2ccccc12)c1cnc2ccccc2n1` [Compound 29, N-(naphthalen-1-ylmethyl)quinoxaline-2-carboxamide], the IC50 in data set [22] was over 250 µM; in data set [23], over 250 µM; in [24], 49.6 µM; in data set [26], 68.5 µM; in data set [20] (setting [39]) it was 37.3 µM. For the same compound, the MIC in [10] (read-out: MIC S. aureus) is at least 500 µM; in [2], at least 500 µM; in data set [18], ≥ 125 µg/mL and ≥ 399 µM; in data set [11] (read-out: MIC P. aeruginosa), at least 500 µM; in [3], at least 500 µM; in data set [12] (read-out: MIC E. coli) it was at least 500 µM. The MIC in [4] (read-out: MIC L. corymbifera) was at least 500 µM; in [5] (read-out: MIC C. albicans), at least 500 µM; in [13] (read-out: MIC MRSA) it was at least 500 µM; in [19], ≥ 250 µg/mL and ≥ 798 µM; in data set [14] (read-out: MIC K. pneumoniae), at least 500 µM; in data set [6] (read-out: MIC A. flavus), at least 500 µM. Also, the minimal inhibitory concentration (MIC) in [15] (read-out: MIC S. marcescens), in [7], in data set [8] (read-out: MIC T. interdigitale), in [9] (read-out: MIC A. fumigatus), in [16] (read-out: MIC E. faecalis) and in [17] (read-out: MIC S. epidermidis) was at least 500 µM in each case. Also, in data set [21], the MIC was ≥ 125 µg/mL and ≥ 399 µM. In data set [25], the IC50 at 24 h was over 250 µM.
With `NC(=O)c1cnccn1` [PZA, pyrazinamide, reference compound], the MIC is at least 500 µg/mL in [18]; ≥ 500 µg/mL and ≥ 4060 µM in data set [19]; at least 500 µg/mL in data set [21]. Besides, the “MIC for Mtb H37Ra” value is under 3.91 µg/mL in data set [1] (acidic pH, Figure 2) and over 500 µg/mL in [1] (neutral pH, Figure 2). Besides, the IC50 in data set [20] (HepG2, 24 h) was over 1000 µM.
As for `O=C(Nc1ccc(O)cc1)c1cnc2ccccc2n1` [Compound 3], the MIC in data set [18] is at least 500 µg/mL; in data set [19], 62.5 µg/mL and 236 µM; in [21] it was at least 500 µg/mL. Moreover, the “SI (selectivity index)” value in data set [19] (IC50 HepG2 (µM)/MIC Mtb H37Ra (µM)) is recorded as over 1.01. In [20] (setting [39]), the IC50 was over 250 µM.
